Experimental data published in ChEMBL document CHEMBL1201862, “PubChem BioAssay data set” (2004).
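In this assay, cells in 96-well plates receive the compound at five concentrations for 48 hours. Endpoints are linearly interpolated between the surrounding concentrations. At the GI50, growth is halved.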 Calls of active or inactive are those of the source. Cut-off read from the data, not from the text of the source: active = GI50 up to about 1.1 µM and inactive = higher.

Legend:
Assay in all cases: DTP human tumour cell line panel, 48 h
Hs-578T = system: Hs-578T
RPMI-8226 = system: RPMI-8226
UACC-257 = system: UACC-257
MDA-MB-435 = system: MDA-MB-435
MOLT-4 = system: MOLT-4
U-251 = system: U-251
UO-31 = system: UO-31
M14 = system: M14
OVCAR-4 = system: OVCAR-4
NCI/ADR-RES = system: NCI/ADR-RES
COLO 205 = system: COLO 205
SF-268 = system: SF-268
SW-620 = system: SW-620
NCI-H23 = system: NCI-H23
OVCAR-3 = system: OVCAR-3
MDA-MB-231 = system: MDA-MB-231
SN12C = system: SN12C
NCI-H522 = system: NCI-H522
SF-539 = system: SF-539
Malme-3M = system: Malme-3M
HT-29 = system: HT-29
SNB-19 = system: SNB-19
CCRF-CEM = system: CCRF-CEM
K562 = system: K562
OVCAR-5 = system: OVCAR-5
KM12 = system: KM12
PC-3 = system: PC-3
786-0 = system: 786-0
SNB-75 = system: SNB-75
SK-MEL-2 = system: SK-MEL-2
SF-295 = system: SF-295
BT-549 = system: BT-549
TK-10 = system: TK-10
HCT-15 = system: HCT-15
MCF7 = system: MCF7
HCC 2998 = system: HCC 2998
OVCAR-8 = system: OVCAR-8
ACHN = system: ACHN
MDA-N = system: MDA-N
EKVX = system: EKVX
NCI-H226 = system: NCI-H226
HCT-116 = system: HCT-116
IGROV-1 = system: IGROV-1
HOP-62 = system: HOP-62
LOX IMVI = system: LOX IMVI
A549 = system: A549
SR = system: SR
SK-OV-3 = system: SK-OV-3
SK-MEL-28 = system: SK-MEL-28
CAKI-1 = system: CAKI-1
NCI-H460 = system: NCI-H460
T47D = system: T47D
RXF 393 = system: RXF 393
SK-MEL-5 = system: SK-MEL-5
UACC-62 = system: UACC-62
HL-60 = system: HL-60
A498 = system: A498
DU-145 = system: DU-145
HOP-92 = system: HOP-92

SMILES: Cc1ccc2c(c1)nc1n2C(c2c(F)cccc2F)SC1 (stereo not drawn)
- GI50 (Hs-578T): 15.7 µM (inactive)
- GI50 (RPMI-8226): 34.4 µM (inactive)
- GI50 (UACC-257): 56.8 µM (inactive)
- GI50 (MDA-MB-435): 29.6 µM (inactive)
- GI50 (MOLT-4): 14.1 µM (inactive)
- GI50 (U-251): 39.8 µM (inactive)
- GI50 (UO-31): 26.9 µM (inactive)
- GI50 (M14): 51.1 µM (inactive)
- GI50 (OVCAR-4): > 100 µM (inactive)
- GI50 (NCI/ADR-RES): 31.8 µM (inactive)
- GI50 (COLO 205): 32.3 µM (inactive)
- GI50 (SF-268): 44.5 µM (inactive)
- GI50 (SW-620): 31.9 µM (inactive)
- GI50 (NCI-H23): 41.5 µM (inactive)
- GI50 (OVCAR-3): 55.8 µM (inactive)
- GI50 (MDA-MB-231): 41 µM (inactive)
- GI50 (SN12C): 39.4 µM (inactive)
- GI50 (NCI-H522): 31.5 µM (inactive)
- GI50 (SF-539): 24.3 µM (inactive)
- GI50 (Malme-3M): 18.9 µM (inactive)
- GI50 (HT-29): 28.8 µM (inactive)
- GI50 (SNB-19): 64.1 µM (inactive)
- GI50 (CCRF-CEM): 21 µM (inactive)
- GI50 (K562): 22.3 µM (inactive)
- GI50 (OVCAR-5): 57.4 µM (inactive)
- GI50 (KM12): 34.4 µM (inactive)
- GI50 (PC-3): 20.7 µM (inactive)
- GI50 (786-0): 32 µM (inactive)
- GI50 (SNB-75): 8.51 µM (inactive)
- GI50 (SK-MEL-2): 20 µM (inactive)
- GI50 (SF-295): 35.1 µM (inactive)
- GI50 (BT-549): > 10 µM (inactive)
- GI50 (TK-10): 81.1 µM (inactive)
- GI50 (HCT-15): 27.9 µM
- GI50 (MCF7): 41.7 µM (inactive)
- GI50 (HCC 2998): 32.1 µM (inactive)
- GI50 (OVCAR-8): 39.5 µM (inactive)
- GI50 (ACHN): 35.2 µM (inactive)
- GI50 (MDA-N): 49.8 µM (inactive)
- GI50 (EKVX): 30.8 µM (inactive)
- GI50 (NCI-H226): 29 µM (inactive)
- GI50 (HCT-116): 28.4 µM (inactive)
- GI50 (IGROV-1): 50.6 µM (inactive)
- GI50 (HOP-62): 57 µM (inactive)
- GI50 (LOX IMVI): 33.5 µM (inactive)
- GI50 (A549): 28.8 µM (inactive)
- GI50 (SR): 24.4 µM (inactive)
- GI50 (SK-OV-3): 52.6 µM (inactive)
- GI50 (SK-MEL-28): 41 µM (inactive)
- GI50 (CAKI-1): 27.9 µM (inactive)
- GI50 (NCI-H460): 52.8 µM (inactive)
- GI50 (T47D): 41.6 µM (inactive)
- GI50 (RXF 393): 27 µM (inactive)
- GI50 (SK-MEL-5): > 10 µM (inactive)
- GI50 (UACC-62): > 10 µM (inactive)

SMILES: CC(=O)Oc1ccc2[nH]c3c(C)c4cccc-4ccc3c2c1
- GI50 (Hs-578T): 2.64 µM (inactive)
- GI50 (RPMI-8226): 3.03 µM (inactive)
- GI50 (UACC-257): 1.92 µM (inactive)
- GI50 (MDA-MB-435): 2 µM (inactive)
- GI50 (MOLT-4): 3.13 µM (inactive)
- GI50 (UO-31): 1.76 µM (inactive)
- GI50 (HL-60): 2.72 µM (inactive)
- GI50 (M14): 2.17 µM (inactive)
- GI50 (OVCAR-4): 1.84 µM (inactive)
- GI50 (NCI/ADR-RES): 2.28 µM (inactive)
- GI50 (A498): 2.1 µM (inactive)
- GI50 (SF-268): 2.02 µM (inactive)
- GI50 (SW-620): 3.7 µM (inactive)
- GI50 (NCI-H23): 1.99 µM (inactive)
- GI50 (OVCAR-3): 1.62 µM (inactive)
- GI50 (SN12C): 2.47 µM (inactive)
- GI50 (NCI-H522): 1.63 µM (inactive)
- GI50 (Malme-3M): 1.78 µM (inactive)
- GI50 (HT-29): 2.02 µM (inactive)
- GI50 (DU-145): 3.27 µM (inactive)
- GI50 (SNB-19): 2.04 µM (inactive)
- GI50 (HOP-92): 2.12 µM (inactive)
- GI50 (K562): 3.79 µM (inactive)
- GI50 (OVCAR-5): 2.02 µM (inactive)
- GI50 (KM12): 2.44 µM (inactive)
- GI50 (PC-3): 1.87 µM (inactive)
- GI50 (786-0): 1.85 µM (inactive)
- GI50 (SK-MEL-2): 1.96 µM (inactive)
- GI50 (SF-295): 2.02 µM (inactive)
- GI50 (BT-549): 2.34 µM (inactive)
- GI50 (TK-10): 1.87 µM (inactive)
- GI50 (HCT-15): 2.24 µM
- GI50 (MCF7): 2.65 µM (inactive)
- GI50 (HCC 2998): 2.18 µM (inactive)
- GI50 (OVCAR-8): 2.1 µM (inactive)
- GI50 (ACHN): 1.79 µM (inactive)
- GI50 (MDA-N): 2.36 µM (inactive)
- GI50 (EKVX): 2.2 µM (inactive)
- GI50 (NCI-H226): 1.38 µM (inactive)
- GI50 (HCT-116): 2.07 µM (inactive)
- GI50 (IGROV-1): 1.57 µM (inactive)
- GI50 (HOP-62): 2.29 µM (inactive)
- GI50 (LOX IMVI): 2.18 µM (inactive)
- GI50 (A549): 2.26 µM (inactive)
- GI50 (SR): 4.59 µM (inactive)
- GI50 (SK-OV-3): 2.02 µM (inactive)
- GI50 (SK-MEL-28): 2.31 µM (inactive)
- GI50 (CAKI-1): 1.86 µM (inactive)
- GI50 (NCI-H460): 2.94 µM (inactive)
- GI50 (T47D): 2.43 µM (inactive)
- GI50 (RXF 393): 1.82 µM (inactive)
- GI50 (SK-MEL-5): 1.83 µM (inactive)
- GI50 (UACC-62): 1.81 µM (inactive)
